Among the data in paper PMC5681660, “Reduced hepatitis B and D viral entry using clinically applied drugs as novel inhibitors of the bile acid transporter NTCP” (Scientific Reports, 2017) are Ranking score and B-score functional assay values, retold here.

This experiment has as its target T1, human NTCP (Homo sapiens, UniProt Q14973).
T1 sequence (Q14973 1-349): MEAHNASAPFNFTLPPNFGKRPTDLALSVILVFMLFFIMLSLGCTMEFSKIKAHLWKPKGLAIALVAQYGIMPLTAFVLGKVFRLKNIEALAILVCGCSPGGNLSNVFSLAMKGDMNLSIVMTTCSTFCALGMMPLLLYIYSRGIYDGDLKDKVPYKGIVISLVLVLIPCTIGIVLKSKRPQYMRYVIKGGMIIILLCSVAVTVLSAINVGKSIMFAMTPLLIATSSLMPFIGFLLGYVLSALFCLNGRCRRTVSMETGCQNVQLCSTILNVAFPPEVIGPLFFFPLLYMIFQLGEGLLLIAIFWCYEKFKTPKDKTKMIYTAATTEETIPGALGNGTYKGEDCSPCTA
Nature of the experiment: Screening taurocholate uptake assay (96-well, [14C]taurocholate, 10 µM drug). The conditions noted are these: for B-score functional assay: screening taurocholate uptake, 10 µM drug.

Where [1] appears, read: ranking over the functional and the binding screening assay.
Where [2] appears, read: combined ranking of functional and binding screening assays.

Structures can show the parent of a compound that is named as a salt.

In turn, `CC#C[C@]1(O)CC[C@H]2[C@@H]3CCC4=CC(=O)CCC4=C3[C@@H](c3ccc(N(C)C)cc3)C[C@@]21C` [Mifepristone] yielded a B-score functional assay of -2.267. For the same compound, the Ranking score under setting [1] worked out at 246.499.
Regarding `CC1(C)O[C@@H]2C[C@H]3[C@@H]4CCC5=CC(=O)CC[C@]5(C)[C@@]4(F)[C@@H](O)C[C@]3(C)[C@]2(C(=O)CCl)O1` [Halcinonide], the B-score functional assay is recorded as 0.608. Besides, the Ranking score under setting [2] was 634.219.
As for `COc1cc(C(=O)OCCCN2CCCN(CCCOC(=O)c3cc(OC)c(OC)c(OC)c3)CC2)cc(OC)c1OC.Cl.Cl` [Dilazep dihydrochloride], the B-score functional assay is -0.659. Further, the Ranking score under setting [2] was 649.692.
For `Cn1c(=O)c2[nH]cnc2n(C)c1=O` [Aminophylline], in that order: -0.16 and 601.379.
For `C[C@@H]1C[C@H]2[C@@H]3C[C@H](F)C4=CC(=O)C=C[C@]4(C)[C@@]3(Cl)[C@@H](O)C[C@]2(C)[C@H]1C(=O)COC(=O)C(C)(C)C` [Clocortolone pivalate], the Ranking score under setting [2] worked out at 1150.27. The compound also yielded a B-score functional assay (B-score) of 4.298.
Take `Cc1cccc(CN2CCN(C(c3ccccc3)c3ccc(Cl)cc3)CC2)c1.Cl.Cl` (centres unmarked) [Meclozine dihydrochloride]: the B-score functional assay is -1.455. Moreover, the Ranking score under setting [2] is listed as 482.469.
In turn, `Cn1c(NCCN(CCO)CCCc2ccc([N+](=O)[O-])cc2)cc(=O)n(C)c1=O` [Nifekalant] showed a B-score functional assay of 0.451. Besides, under setting [2], the Ranking score amounted to 503.354.
In the case of `CS(=O)(=O)c1ccc(C2=C(c3ccccc3)C(=O)OC2)cc1` [Rofecoxib], the B-score functional assay came out at 1.027. Further, under setting [1], the Ranking score turned out to be 212.386.
The compound `CCOCCn1c(N2CCCN(C)CC2)nc2ccccc21` [Emedastine] had a B-score functional assay of -0.5. For the same compound, the Ranking score under setting [2] was 501.772.
On to `Nc1ccc(/N=N/c2ccccc2)c(N)n1` [Phenazopyridine hydrochloride], for which the B-score functional assay was -0.376. The compound also came in with a Ranking score under setting [1] of 182.587.
The compound `Cl.OC(CCN1CCCCC1)(c1ccccc1)C1CCCCC1` (centres unmarked) [Trihexyphenidyl-D,L Hydrochloride] showed a B-score functional assay of 0.458. The Ranking score under setting [2] was 472.758.
In turn, `CCCCOc1ccc(CC(=O)NO)cc1` [Bufexamac] returned a B-score functional assay of -0.678. This compound had a Ranking score under setting [1] of 265.556.
For `CC[C@H](c1ccc(O)cc1)[C@@H](CC)c1ccc(O)cc1` [Hexestrol], in that order: -5.763 and 43.1277.
For `Clc1ccc(Nc2nnc(Cc3ccncc3)c3ccccc23)cc1` [Vatalanib], in that order: -2.979 and 181.191.
Taken in the same sequence, the figures for `C/C=C(\C)C(=O)O[C@H]1[C@H](OC(C)=O)[C@@]2(CO)C(CC1(C)C)C1=CC[C@@H]3[C@@]4(C)CC[C@H](O[C@@H]5O[C@H](C(=O)O)[C@@H](O[C@@H]6O[C@H](CO)[C@@H](O)[C@H](O)[C@H]6O)[C@H](O)[C@H]5O[C@@H]5O[C@H](CO)[C@@H](O)[C@H](O)[C@H]5O)[C@H](CO)C4CC[C@@]3(C)[C@@]1(C)C[C@H]2O` (stereo partly drawn) [Beta-Escin] were -8.059 and 8.485.
With `CC(C)C[C@H](NC(=O)[C@@H](O)[C@H](N)Cc1ccccc1)C(=O)O` [Ubenimex], the B-score functional assay came out at 0.218. Besides, under setting [2], the Ranking score turned out to be 608.5.
As to `OCCN1CCN(CCCN2c3ccccc3C=Cc3ccccc32)CC1` [Opipramol dihydrochloride], the B-score functional assay is given as -0.641. For the same compound, the Ranking score under setting [2] was determined as 627.796.
`CN[C@@H]1[C@H](O[C@H]2[C@H](O[C@H]3[C@H](O)[C@@H](O)[C@H](NC(=N)N)[C@@H](O)[C@@H]3NC(=N)N)O[C@@H](C)[C@]2(O)CO)O[C@@H](CO)[C@H](O)[C@H]1O` [Dihydrostreptomycin sulfate] came in with a B-score functional assay of -2.479. This compound also came in with a Ranking score under setting [1] of 143.478.
Taken in the same sequence, the figures for `O=[N+]([O-])O[C@@H]1CO[C@H]2[C@@H]1OC[C@@H]2O` [Isosorbide mononitrate] were -0.263 and 252.589.
For `Clc1ccccc1C(c1ccccc1)(c1ccccc1)n1ccnc1` [Clotrimazole], in that order: -1.203 and 204.208.
Take `C[C@@H]1C[C@H]2[C@@H]3C[C@H](F)C4=CC(=O)C=C[C@]4(C)[C@@]3(F)[C@@H](O)C[C@]2(C)[C@@]1(O)C(=O)COC(=O)C(C)(C)C` [Flumethasone pivalate]: the B-score functional assay was 0.019. For the same compound, the Ranking score under setting [2] worked out at 535.546.
For `Oc1c(Cl)cc(Cl)c2cccnc12` [Chloroxine], the B-score functional assay is listed as -0.339. For the same compound, the Ranking score under setting [2] is 538.476.
For `CC(Oc1c(Cl)cccc1Cl)C1=NCCN1` (centres unmarked) [Lofexidine], in that order: -0.33 and 633.467.
Taken in the same sequence, the figures for `CC(=O)CCCCn1c(=O)c2c(ncn2C)n(C)c1=O` [Pentoxifylline] were -0.027 and 582.174.
With `O=C(COc1ccc(Cl)cc1)N1CCN(Cc2ccc3c(c2)OCO3)CC1` [Fipexide hydrochloride], the B-score functional assay is reported as -2.118. Also, under setting [1], the Ranking score stood at 172.884.
In the case of `O=c1cc(-c2ccc(O)c(O)c2)oc2cc(O)cc(O)c12` [Luteolin], the B-score functional assay is reported as -0.024. Further, the Ranking score under setting [2] is 585.624.
For `C[C@]12C/C(=C/O)C(=O)C[C@@H]1CC[C@@H]1[C@@H]2CC[C@@]2(C)[C@H]1CC[C@]2(C)O` [Oxymetholone], in that order: -1.45 and 467.145.
For `CCCCC(CC)CN1CN(CC(CC)CCCC)CC(C)(N)C1` (centres unmarked) [Hexetidine], in that order: 3.961 and 491.543.
On to `COc1ccccc1OCC(O)CO` (centres unmarked) [Guaifenesin], for which the B-score functional assay is reported as 0.275. The Ranking score under setting [2] is recorded as 466.326.
For the compound `O=C(O)CCC(=O)Nc1ccc(S(=O)(=O)Nc2nccs2)cc1` [Succinylsulfathiazole], the B-score functional assay is listed as -0.075. The compound further gave a Ranking score under setting [1] of 258.147.
The compound `Cc1ccnc2c1NC(=O)c1cccnc1N2C1CC1` [Nevirapine] gave a B-score functional assay of -1.052. Besides, the Ranking score under setting [2] is 548.284.
With `C#C[C@]1(O)CC[C@H]2[C@@H]3CCC4=CC(=O)CC[C@@H]4[C@H]3CC[C@@]21C` [Norethindrone], the B-score functional assay is listed as -0.48. Under setting [1], this compound gave a Ranking score of 274.683.
Taken in the same sequence, the figures for `CC(=O)Nc1ccc(OCC(O)CNC(C)C)cc1` (centres unmarked) [Practolol] were -2.472 and 213.764.
Taken in the same sequence, the figures for `CN(Cc1cc(Br)cc(Br)c1N)C1CCCCC1` [Bromhexine hydrochloride] were -0.767 and 149.492.
Taken in the same sequence, the figures for `C=CC1=C(C(=O)O)N2C(=O)[C@@H](NC(=O)/C(=N\OCC(=O)O)c3csc(N)n3)[C@H]2SC1` [Cefixime] were -2.268 and 185.952.
With `COc1ccc(-c2ccc(=N)n(CCCC(=O)O)n2)cc1` [Gabazine bromide], the B-score functional assay is on record as -0.231. Under setting [1], this compound yielded a Ranking score of 269.035.
For `C[C@H](CCC(=O)O)[C@H]1CC[C@H]2[C@@H]3[C@@H](O)C[C@@H]4C[C@H](O)CC[C@]4(C)[C@H]3CC[C@]12C` [Urosiol], in that order: -4.542 and 126.965.
Taken in the same sequence, the figures for `C[C@@H]1O[C@@H](O[C@@H]2C=C3CC[C@@H]4[C@H](CC[C@]5(C)[C@@H](c6ccc(=O)oc6)CC[C@]45O)[C@@]3(C)CC2)[C@H](O)[C@H](O)[C@H]1O` [Proscillaridin A] were -2.06 and 183.761.
Compound `NNc1nncc2ccccc12` [Hydralazine hydrochloride] registered a B-score functional assay of -0.84. For the same compound, the Ranking score under setting [2] came out at 587.239.
Compound `O=C(Nc1cccc2c(=O)cc(-c3nnn[nH]3)oc12)c1ccc(OCCCCc2ccccc2)cc1` [Pranlukast] registered a B-score functional assay of -8.959. This compound displayed a Ranking score under setting [1] of 43.359.
In turn, `CCN(CC)C(=O)c1ccc(O)c(OC)c1` [Ethamivan] gave a B-score functional assay of -1.181. For the same compound, the Ranking score under setting [2] came out at 538.826.
For `C[N+](C)(C)CCOC(N)=O` [Carbachol], in that order: 0.619 and 511.9.
Regarding `COc1cc([C@@H]2c3cc4c(cc3[C@H](O)[C@H]3COC(=O)[C@H]23)OCO4)cc(OC)c1OC` [Podophyllotoxin], under setting [2], the Ranking score is on record as 1193.91. Under “B-score”, the B-score functional assay amounted to 1.781.
Compound `C[C@H](N)[C@H](O)c1cccc(O)c1` [Metaraminol bitartrate] gave a B-score functional assay of 0.952. The same compound showed a Ranking score under setting [1] of 141.58.
Taken in the same sequence, the figures for `CN(C)CCCN1c2ccccc2Sc2ccc(Cl)cc21` [Chlorpromazine hydrochloride] were 1.542 and 173.367.
Consider `CC[N+](C)(CC)CCC[n+]1c(-c2ccccc2)c2cc(N)ccc2c2ccc(N)cc21.[I-].[I-]` [Propidium iodide], for which the B-score functional assay is -1.35. Besides, under setting [2], the Ranking score is listed as 504.845.
